The values that follow come from paper PMC10293011, “An allosteric pan-TEAD inhibitor blocks oncogenic YAP/TAZ signaling and overcomes KRAS G12C inhibitor resistance” (Nature Cancer, 2023).

In this experiment the target is T1, TEAD3 (Homo sapiens, UniProt Q99594).
T1 construct: with YAP peptide (amino acids 50–100)
The experiment can be described thus: TEAD3–YAP TR-FRET with purified protein (IC50); lipid displacement TR-FRET. The format is binding. For orientation: Time-resolved FRET reads energy transfer from a long-lived donor to a nearby acceptor.

Structures are written as SMILES.

T1 sequence (Q99594 216-435): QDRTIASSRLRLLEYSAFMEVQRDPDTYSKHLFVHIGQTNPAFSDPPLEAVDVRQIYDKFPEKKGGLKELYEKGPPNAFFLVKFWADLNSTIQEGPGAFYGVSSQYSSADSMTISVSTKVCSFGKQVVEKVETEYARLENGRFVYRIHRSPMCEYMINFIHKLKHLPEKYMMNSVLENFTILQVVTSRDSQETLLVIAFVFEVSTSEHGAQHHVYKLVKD
T1 sequence (P46937 50-100 partner): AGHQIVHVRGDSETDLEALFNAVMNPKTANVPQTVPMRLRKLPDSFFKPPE

Usually IC50 stands for the concentration that inhibits the measured activity by half. The low end stands for greater potency in that assay, the high end for weaker potency in that assay. `CCOC(=O)c1cnn2c(=O)cc(-c3ccc(C(F)(F)F)cc3)[nH]c12` [compound 1]: the IC50 is 1400 nM.
